Patent publication US20130216553A1, “Compositions and Methods for Modulation and Detection of Immune and Inflammatory Responses” (priority 2010, published 2013)
* marks the point of attachment. Palmitoyl = CCCCCCCCCCCCCCCC(=O)*

How the values were obtained:
[1] = test system: Bone marrow-derived DCs from wild-type (WT) mice; assay: Stimulation of bone marrow dendritic cells from wild-type mice (IL-6 ELISA, surface activation markers); type: cell-based, mouse; conditions: WT BMDCs, plate-bound LPS (1 μg), MMP (10 μg) or PE DHC (2.5 μg), supernatants after 18 hrs
Protocol: (§1) Bone marrow cells from C57BL/6 and TLR2^−/− mice were cultured at 2×10^5 cells/ml in RPMI containing 10% FCS, 2-ME, and 20 ng/ml recombinant murine GM-CSF for 9 days. Bone marrow DCs (BMDCs) were harvested at Day 9 and were greater than 80% CD11c+. LPS (1 μg), MMP (10 μg) (a bacterial lipoprotein and known TLR-2 ligand: Palmitoyl-Cys ((RS)-2,3-di(palmitoyloxy)-propyl)-Ser-Ser-Asn-Ala-OH(pam3-Cys-Ser-Ser Asn-Ala-OH) (Bachem H-9460), PE DHC (2.5 μg) or 70% EtOH, all in 20 ul volumes, were allowed to dry in the wells of a 24-well plate overnight prior to the addition of BMDCs. BMDCs were cultured in the ligand-bound 24-well plates at 1×10^6 cells/ml in RPMI containing GM-CSF. After 18 hrs, culture supernatants were harvested and tested for IL-6 via ELISA.
(§2) The effects of PE DHC on antigen presenting cell (APC) activation in vitro were examined. Dendritic cells (BMDCs) (>85% CD11c+) were derived from the bone marrow of WT or TLR2^−/− mice and cultured either alone or with EtOH, LPS, MMP (a TLR2 ligand), or PE DHC. After 18 Ins supernatants were assayed for IL-6. […] BMDCs were also assayed for expression of the surface activation markers B7.2 and MHC class II.

[2] = test system: Bone marrow-derived DCs from TLR2^−/− mice; assay: Stimulation of bone marrow dendritic cells from TLR2^−/− mice (IL-6 ELISA, surface activation markers); type: cell-based, mouse; conditions: TLR2^−/− BMDCs, plate-bound LPS (1 μg), MMP (10 μg) or PE DHC (2.5 μg), supernatants after 18 hrs
Protocol: as §1, §2

Substance: Palmitoyl-Cys ((RS)-2,3-di(palmitoyloxy)-propyl)-Ser-Ser-Asn-Ala-OH ({Palmitoyl-Cys((RS)-2,3-di(palmitoyloxy)-propyl)}-SSNA-OH) [MMP, a bacterial lipoprotein and known TLR-2 ligand (Bachem H-9460)]
- IL-6 secretion [1]: resulted in IL-6 secretion
- IL-6 secretion [2]: did not
